Results published in patent publication US20170258756A1, “A Method for Topically Treating Actinic Keratosis on the Scalp with Ingenol 3-(3,5-diethylisoxazole-4-carboxylate)” (LEO Laboratories Limited, priority 2014, published 2017).

Tests used:
[1] = test system: actinic keratosis on the scalp; assay: Part 2 open label trial, 0.037% gel once daily for three consecutive days on the scalp; type: in vivo, human
Description: The outcome for Part 2 is safety and efficacy in a once daily application for three consecutive days on the scalp. The efficacy in treating of the AK will be measured as reduction in AK count in the treated area of lesions which are not considered hyperkeratotic/hypertrophic.
In parallel the efficacy in treating of the AK will be measured as reduction in AK count in the treated area of lesions which are considered hyperkeratotic/hypertrophic.
The reduction in AK count will be performed at week 4 and 8 no matter the type of lesion. Also complete clearance of AKs in the treated area which are not considered hyperkeratotic/hypertrophic at week 8 will be measured.
To qualify for part 2 of the trial, the subjects must have 5-20 clinically visible and discrete AKs within 250 cm^2 area on the balding scalp (The balding part of the scalp should be greater than 25 cm^2 and up to approximately 250 cm^2). In addition to the requirement of 5-20 clinically typical, visible and discrete AKs within the selected treatment area, subjects may also have visible and discrete hyperkeratotic/hypertrophic lesions in this area. The subjects will be treated with a dose of 0.037% as a once daily three consecutive days treatment and followed for 8 weeks.
The trial consists of an initial part, where 18 subjects will be treated on the scalp. […] As this is a safety trial, it is considered justified to conduct this clinical trial as an open-label, uncontrolled trial. An early safety and tolerability evaluation will be performed following the 3 days treatment. If safety and tolerability is found acceptable by the Early Data Review Committee, and additional 44 subjects will be enrolled in order to expand safety observations and obtain an estimate of treatment efficacy.
The patients are scheduled for 7 visits: • Visit 1: within 21 days prior to day 1 • Visit 2: day 1 (application of trial medication) • Visit 3: […] (application of trial medication) • Visit 4: day 8 (+2 day) • Visit 5: week 2 (±2 day) • Visit 6: week 4 (±4 day) • Visit 7: week 8 (±7 day)
LSRs are evaluated at all visits following visit 1. AK lesion counts are performed on Visit 2, 6 and 7.
At Baseline (Day 1) and Visit 7 (Week 8), the investigator will make a clinical (visual and tactile) assessment of the extent of photo-damage in the treatment area with respect to 1) fine wrinkling, 2) coarse wrinkling, 3) mottled pigmentation, 4) roughness, 5) sallowness, 6) skin laxity, and 7) telangiectasia. Severity for each of these characteristics will be on a 5-point scale: None (0), Mild (1), Moderate (2), Severe (3), Extreme (4).
At Visit 7 (Week 8) the Investigator will make an overall clinical (visual and tactile) assessment of the subject's photo-damage change from baseline in the treatment area (including an integrated assessment of fine wrinkling, coarse wrinkling, mottled pigmentation, roughness, sallowness, skin laxity, and telangiectasia based on the subject's appearance at the baseline visit).
At Visit 7 (Week 8), the subjects will complete a self-assessment questionnaire evaluating the change in the 1) overall appearance of the skin and 2) overall feel of the skin after treatment. The scoring will be on a 5-point scale: Much worsened, Somewhat worsened, No change, somewhat improved, much improved.
The secondary response criteria will be analysed for the full analysis set and for the per protocol analysis set. The ratio of number of AK lesions at week 8 relative to baseline, excluding lesions identified at base line as hyperkeratotic/hypertrophic lesions, will be tabulated by treatment group. Separately for each treatment group, the rate and corresponding 95% confidence interval will be estimated from a negative binomial regression on the AK count at week 8 with the log baseline value as an offset variable. The same analysis will be performed for the subgroup of lesions identified as hyperkeratotic/hypertrophic at baseline. […]

[2] = test system: actinic keratosis on the scalp; assay: Part 1 dose escalation trial, gel once daily for two consecutive days on the scalp (LSR / DLT); type: in vivo, human
Description: Local skin reactions (LSRs) occurs sometimes in the treated area. Often LSRs are quantified by a scale evaluating the following types of skin reactions: erythema, flaking/scaling, crusting, swelling, vasiculation/postulation, and erosion/ulceration which are categorized into categories 0-4 depending on the severity of the reactions.
Dose Limiting toxicity (DLT) is defined as the following LSR: […]
Erosion/ulceration grade 4.
Or other clinically relevant signs or symptoms observed, which the Investigator judges to be counted as a DLT. Maximum tolerated dose (MTD) is declared as dose level at which less than 4 subjects out of experience a DLT of cohort of 12 subjects.
Part 1 was a dose escalation study conducted with a once daily application of trial medication for two consecutive days and continued until the MTD was identified.
Dose escalation proceeded if the safety and tolerability data of the subject up to day 8 was reviewed and considered satisfactory. The treatment consisted of once daily treatment for 2 consecutive days. Up to 5 different doses may be investigated in cohorts of […]. The number of subjects in each cohort depended on the number of observed DLTs. However, the MTD was always be confirmed in a cohort of 12 subjects. […] Dose escalation was stopped at the 0.075% dose level as the investigators in this study felt that the application site adverse events, although manageable, could pose a problem for some patients. […] Part 2 is a study of the efficacy of the 0.037% dose identified in part 1 in a three day regimen.
Part 1: Trial medication, ingenol 3-(3,5-diethylisoxazole-4-carboxylate) gel, will be applied to the treatment area once daily for two consecutive days until the maximum tolerated dose has been reached for each formulation. Up to five different doses of active compound in gel may be investigated in cohorts 12 subjects.
Predefined grades of Local Skin Responses (LSRs) will constitute dose limiting toxicity (DLT). The maximum tolerated dose is defined as the highest dose level at which less than 4 out of12 subjects experience a Dose limiting toxicity.
The doses will be administered in an escalating manner following review of safety and tolerability data performed by the dose escalation committee. Evaluation of the safety and tolerability data will be performed after Visit 5/day 8. Then subjects will be followed for 8 weeks after first application of investigational product.

dermal tumours = assay: in vivo studies in mice, effects on dermal tumours; settings: compared with ingenol mebutate
Description: The exact mechanism of action of ingenol 3-(3,5-diethylisoxazole-4-carboxylate) continues to be investigated, but it is believed that ingenol 3-(3,5-diethylisoxazole-4-carboxylate) has a dual mechanism of action inducing cell death as well as stimulation of immune response.

## CCc1noc(CC)c1C(=O)O[C@H]1C(C)=C[C@]23C(=O)[C@@H](C=C(CO)[C@@H](O)[C@]12O)[C@H]1[C@@H](C[C@H]3C)C1(C)C [ingenol 3-(3,5-diethylisoxazole-4-carboxylate)]
[1]; once daily three consecutive days, scalp, 62 patients, week 8
  reduction in AK count: 79%
[1]; once daily three consecutive days, scalp, week 8
  complete clearance: 40%
[1]; three day regimen, cosmetic outcome self-assessment, % of subjects
  improvement in appearance and feel reported by subjects: more than 90%
[1]; three day regimen, investigator assessment
  photo damage improved, share of patients: two-thirds
[1]; three day regimen, rapid decline thereafter
  time at which side-effects maximize: 4 days
[1]; three day regimen, scalp
  side-effects: considered acceptable
[2]; 0.037%, two days dosing regimen
  tolerability of selected dose with respect to LSRs and application site reaction: well tolerated
[2]; two day regimen, dose escalation up to 0.075%
  subjects meeting dose limiting toxicity (DLT) criteria: no subjects met the predefined criteria for DLT
[2]; two day regimen, stopped because of application site adverse events, manageable
  dose level at which dose escalation was stopped: 0.075%
[2]; two day treatment, compared with 0.075%
  tolerability of 0.037% and 0.05% doses: clearly better tolerated
Dermal tumours
  efficacy in eliminating dermal tumours: more efficacious than ingenol mebutate
